Consider twelve compounds from ChEMBL document CHEMBL1143587, “Discovery of S-phase arresting agents derived from noscapine” (J Med Chem, 2005).

The subject of experiment [1] is HEK293. Nature of the experiment: Effect to arrest G2/M-phase on HEK 293 cells at 25 uM was determined. The class given is functional, Homo sapiens.
Experiment [2] relates to HEK293. Put plainly: Effect to arrest G2/M-phase on HEK 293 cells at 50 uM was determined. It is filed as functional, Homo sapiens.
In experiment [3] the test system is HEK293. Put plainly: Effect to arrest S-phase on HEK 293 cells at 10 uM was determined. It is filed as functional, Homo sapiens.
The test system of experiment [4] is HEK293. Put plainly: Effect to arrest S-phase on HEK 293 cells at 25 uM was determined. The class given is functional, Homo sapiens.
Experiment [5] has as its system HEK293. Put plainly: Effect to arrest S-phase on HEK 293 cells at 50 uM was determined. It is filed as functional, Homo sapiens.
Experiment [6] concerns HEK293. Put plainly: Effect to arrest GI-phase on HEK 293 cells at 10 uM was determined. The class given is functional, Homo sapiens.
Experiment [7] deals with HEK293. Nature of the experiment: Effect to arrest GI-phase on HEK 293 cells at 50 uM was determined. The class given is functional, Homo sapiens.
Experiment [8] deals with HEK293. Put plainly: Effect to arrest G2/M-phase on HEK 293 cells at 10 uM was determined. It is filed as functional, Homo sapiens.
The test system of experiment [9] is HEK293. Put plainly: Compound was tested for inhibition of HEK293 proliferation. The class given is functional, cell-based. As to conditions: Homo sapiens.
Experiment [10] has as its system HEK293. Put plainly: Effect to arrest GI-phase on HEK 293 cells at 25 uM was determined. It is filed as functional, Homo sapiens.
Experiment [11] relates to HEK293. Put plainly: Effect to arrest S-phase on HEK 293 cells at 50 uM was determined; Not significant. The class given is functional, cell-based. As to conditions: Homo sapiens.
In experiment [12] the test system is HEK293. Put plainly: Effect to arrest S-phase on HEK 293 cells at 1 uM was determined. The class given is functional, Homo sapiens.
Experiment [13] relates to HEK293. Put plainly: Effect to arrest GI-phase on HEK 293 cells at 1 uM was determined. It is filed as functional, Homo sapiens.
Experiment [14] deals with HEK293. Put plainly: Effect to arrest G2/M-phase on HEK 293 cells at 1 uM was determined. It is filed as functional, Homo sapiens.

Calls of active or inactive are those of the source. The calls are words filed in the database; no cut-off is given here.

With `COc1ccc2c(c1OCc1ccccc1)C(=O)OC2[C@H]1c2c(cc3c(c2OC)OCO3)CCN1C` (stereo not given in full), the Effect in [1] turned out to be 15%; in experiment [2], 10%; in experiment [3], 57%; in experiment [4], 71%; in experiment [5] it was 67%; in [6], 28%. The values for the Effect in [7], in [8] and in experiment [10] were 23%, 17% and 12%, respectively. This compound also had an EC50 in experiment [9] of 15 µM.

Consider `COc1ccc2c(c1-c1ccc(C(C)(C)C)cc1)C(=O)O[C@@H]2[C@H]1c2c(cc3c(c2OC)OCO3)CCN1C`, for which the outcome in [11] was inactive.

As to `COc1ccc2c(c1-c1cc(F)cc(F)c1)C(=O)O[C@@H]2[C@H]1c2c(cc3c(c2OC)OCO3)CCN1C`, in experiment [11], the result was inactive.

Regarding `COc1ccc2c(c1OCc1ccsc1)C(=O)O[C@@H]2[C@H]1c2c(cc3c(c2OC)OCO3)CCN1C`, the Effect came out at 10% in [1], 62% in experiment [4] and 28% in [10].

Regarding `COc1cc2c(c(OC)c1OC)-c1ccc(OC)c(=O)cc1[C@@H](NC(C)=O)CC2` [COLCHICINE], the Effect in [3] was found to be 14%; in experiment [6] it was 3%; in experiment [8], 83%.

For `COc1ccc2c(c1OCc1csc(C)n1)C(=O)O[C@@H]2[C@H]1c2c(cc3c(c2OC)OCO3)CCN1C`, the Effect is 62% in experiment [3], 28% in [6] and 10% in [8].

Consider `COc1ccc2c(c1-c1ccc(N(C)C)cc1)C(=O)O[C@@H]2[C@H]1c2c(cc3c(c2OC)OCO3)CCN1C`, for which, in experiment [11], the result was inactive.

For the compound `COc1ccc2c(c1SCc1ccccc1)C(=O)O[C@@H]2[C@H]1c2c(cc3c(c2OC)OCO3)CCN1C`, the Effect in [3] was determined as 65%; in experiment [6] it was 24%; in [8], 11%.

For the compound `COc1cc(COc2c(OC)ccc3c2C(=O)O[C@@H]3[C@H]2c3c(cc4c(c3OC)OCO4)CCN2C)cc(OC)c1OC`, the Effect is 6% in experiment [2]; 65% in [12]; 24% in experiment [13]; 65% in experiment [3]; 84% in [5]; 19% in [6]. Besides, the Effect in experiment [7] is reported as 13%; in experiment [14], 11%; in experiment [8], 16%. Besides, in experiment [9], the EC50 stood at 1.9 µM.

Consider `COc1ccc2c(c1-c1ccsc1)C(=O)O[C@@H]2[C@H]1c2c(cc3c(c2OC)OCO3)CCN1C`, for which, in experiment [11], the result was inactive.

`COc1cc(-c2c(OC)ccc3c2C(=O)O[C@@H]3[C@H]2c3c(cc4c(c3OC)OCO4)CCN2C)cc(OC)c1OC`: the outcome in experiment [11] was inactive.

`COc1ccc2c(c1OC)C(=O)O[C@@H]2[C@H]1c2c(cc3c(c2OC)OCO3)CCN1C` [NOSCAPINE]: the Effect is listed as 76% in experiment [2], 18% in experiment [5] and 6% in [7].

One may read the EC50 as the midpoint of the concentration-response curve. Higher therefore signals weaker potency.
